Five compounds from patent US20250120967A1, “TYROSINE KINASES INHIBITORS AND USES THEREOF” (GREAT NOVEL THERAPEUTICS BIOTECH & MEDICALS CORPORATION, priority 2023, published 2025) can be followed below.

Like-named read-outs stand apart in the source and are kept apart here.

Holding throughout (test): Tyrosine kinase inhibition assay
Holding throughout (type): biochemical

One test concerns the target T1, MAP4K3 (GLK) (Homo sapiens, UniProt Q8IVH8).
T1 sequence (Q8IVH8 1-894): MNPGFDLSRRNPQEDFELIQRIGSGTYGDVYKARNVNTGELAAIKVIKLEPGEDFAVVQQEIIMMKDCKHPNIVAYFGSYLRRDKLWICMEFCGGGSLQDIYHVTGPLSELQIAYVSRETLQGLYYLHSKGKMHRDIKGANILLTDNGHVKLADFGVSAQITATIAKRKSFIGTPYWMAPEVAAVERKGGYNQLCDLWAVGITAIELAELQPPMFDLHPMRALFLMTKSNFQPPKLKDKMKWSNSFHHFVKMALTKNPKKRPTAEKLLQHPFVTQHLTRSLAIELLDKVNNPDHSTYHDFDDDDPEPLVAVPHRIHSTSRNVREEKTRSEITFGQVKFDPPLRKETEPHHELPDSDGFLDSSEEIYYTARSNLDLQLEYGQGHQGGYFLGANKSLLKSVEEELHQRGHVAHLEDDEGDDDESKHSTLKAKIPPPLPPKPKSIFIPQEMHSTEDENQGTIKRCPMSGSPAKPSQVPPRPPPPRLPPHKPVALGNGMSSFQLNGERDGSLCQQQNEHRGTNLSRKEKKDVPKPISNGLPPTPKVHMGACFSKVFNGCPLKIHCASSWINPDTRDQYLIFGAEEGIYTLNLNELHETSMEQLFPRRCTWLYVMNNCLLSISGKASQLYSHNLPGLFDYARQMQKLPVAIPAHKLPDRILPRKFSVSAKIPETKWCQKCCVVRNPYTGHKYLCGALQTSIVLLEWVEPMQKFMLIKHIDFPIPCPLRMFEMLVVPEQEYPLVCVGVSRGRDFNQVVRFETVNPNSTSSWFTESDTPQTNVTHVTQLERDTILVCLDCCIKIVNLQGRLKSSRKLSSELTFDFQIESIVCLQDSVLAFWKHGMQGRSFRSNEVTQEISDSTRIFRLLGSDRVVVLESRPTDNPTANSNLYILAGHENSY
The note with it: single concentration 1.0 μM, read-out: percent inhibition. In short, it runs like this: (§1)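 Kinase activity was measured by Z′-LYTE peptide assay with ATP at the apparent Km, in kinase buffer (50 mM HEPES pH 7.5, 0.01% BRIJ-35, 10 mM MgCl2, 1 mM EGTA) with 1% DMSO final. Compounds were tested at a single 1.0 μM concentration and reported as percent inhibition; >80% counted as a hit.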

The next test deals with FGFR2 (Homo sapiens, UniProt P21802). As to conditions: single concentration 1.0 μM, read-out: percent inhibition. The method in brief: as §1
A further test concerns the target PIK3C3 (hVPS34) (Homo sapiens, UniProt Q8NEB9). The note with it: single concentration 1.0 μM, read-out: percent inhibition. The method in brief:
as §1

The target of a further test is T2, AURKC (Aurora C) (Homo sapiens, UniProt Q9UQB9).
T2 sequence (Q9UQB9 1-309): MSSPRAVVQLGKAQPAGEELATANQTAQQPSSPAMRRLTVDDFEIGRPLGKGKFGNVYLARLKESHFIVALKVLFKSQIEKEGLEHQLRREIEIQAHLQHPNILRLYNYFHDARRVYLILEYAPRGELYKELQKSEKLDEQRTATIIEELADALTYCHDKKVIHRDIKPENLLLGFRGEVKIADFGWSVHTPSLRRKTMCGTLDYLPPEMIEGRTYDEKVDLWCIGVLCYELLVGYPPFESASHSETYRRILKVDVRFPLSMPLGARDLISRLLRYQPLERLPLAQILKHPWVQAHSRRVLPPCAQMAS
As to conditions: single concentration 1.0 μM, read-out: percent inhibition. In short, it runs like this: as §1

For a further test, the target named is RAF1 (cRAF) Y340D Y341D (Homo sapiens, UniProt P04049, Y340D/Y341D). The note with it: single concentration 1.0 μM, read-out: percent inhibition. In short, it runs like this:
as §1

In a further test the target is T3, TXK (Homo sapiens, UniProt P42681).
T3 sequence (P42681 1-527): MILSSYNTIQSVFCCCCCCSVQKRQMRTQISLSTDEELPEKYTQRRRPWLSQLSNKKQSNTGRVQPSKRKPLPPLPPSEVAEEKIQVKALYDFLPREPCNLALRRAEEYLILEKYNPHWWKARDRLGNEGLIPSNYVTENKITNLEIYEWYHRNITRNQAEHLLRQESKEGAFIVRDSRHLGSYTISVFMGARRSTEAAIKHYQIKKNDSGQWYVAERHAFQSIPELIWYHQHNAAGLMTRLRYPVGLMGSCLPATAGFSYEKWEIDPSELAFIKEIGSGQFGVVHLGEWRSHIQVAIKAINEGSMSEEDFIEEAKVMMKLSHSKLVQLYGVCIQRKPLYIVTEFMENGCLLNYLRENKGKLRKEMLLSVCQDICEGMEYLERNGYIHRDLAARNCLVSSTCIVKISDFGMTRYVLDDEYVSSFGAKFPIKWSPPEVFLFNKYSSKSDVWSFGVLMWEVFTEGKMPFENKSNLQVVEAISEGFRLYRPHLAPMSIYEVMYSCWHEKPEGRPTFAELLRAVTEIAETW
As to conditions: single concentration 1.0 μM, read-out: percent inhibition. The method in brief:
as §1

The target of a further test is CSK (Homo sapiens, UniProt P41240). As to conditions: single concentration 1.0 μM, read-out: percent inhibition. The method in brief: as §1
Sequence of CSK (P41240 whole entry): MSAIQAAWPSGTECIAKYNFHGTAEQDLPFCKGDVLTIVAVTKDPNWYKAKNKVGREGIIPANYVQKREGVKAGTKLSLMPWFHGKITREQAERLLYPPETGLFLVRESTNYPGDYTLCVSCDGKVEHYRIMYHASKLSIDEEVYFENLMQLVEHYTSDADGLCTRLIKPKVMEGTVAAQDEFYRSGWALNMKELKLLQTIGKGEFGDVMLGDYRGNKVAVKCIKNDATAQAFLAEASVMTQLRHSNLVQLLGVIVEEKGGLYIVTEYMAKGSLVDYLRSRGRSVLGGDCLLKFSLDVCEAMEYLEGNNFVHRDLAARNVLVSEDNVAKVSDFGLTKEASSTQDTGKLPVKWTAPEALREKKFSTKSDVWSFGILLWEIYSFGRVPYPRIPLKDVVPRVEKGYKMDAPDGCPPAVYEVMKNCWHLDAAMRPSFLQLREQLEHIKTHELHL
The target of another test is JAK1 (Homo sapiens, UniProt P23458). As to conditions: single concentration 1.0 μM, read-out: percent inhibition. The method in brief:
as §1

The next test concerns the target ERBB4 (HER4) (Homo sapiens, UniProt Q15303). As to conditions: single concentration 1.0 μM, read-out: percent inhibition. The method in brief:
as §1

Test [1] deals with PIK3CA/PIK3R1 (p110 alpha/p85 alpha) (Homo sapiens, UniProt P42336). As to conditions: read-out: percent inhibition. In short, it runs like this: as §1
Test [2] concerns the target PIK3CB/PIK3R1 (p110 beta/p85 alpha) (Homo sapiens, UniProt P42338). The note with it: single concentration 1.0 μM, read-out: percent inhibition. The method in brief:
as §1

Another test relates to FYN. The note with it: single concentration 1.0 μM. The method in brief: as §1
[3] abbreviates: PIK3CA/PIK3R1 (p110 alpha/p85 alpha), single concentration 1.0 μM.

Sequence of PIK3CB/PIK3R1 (p110 beta/p85 alpha) (P42338 whole entry): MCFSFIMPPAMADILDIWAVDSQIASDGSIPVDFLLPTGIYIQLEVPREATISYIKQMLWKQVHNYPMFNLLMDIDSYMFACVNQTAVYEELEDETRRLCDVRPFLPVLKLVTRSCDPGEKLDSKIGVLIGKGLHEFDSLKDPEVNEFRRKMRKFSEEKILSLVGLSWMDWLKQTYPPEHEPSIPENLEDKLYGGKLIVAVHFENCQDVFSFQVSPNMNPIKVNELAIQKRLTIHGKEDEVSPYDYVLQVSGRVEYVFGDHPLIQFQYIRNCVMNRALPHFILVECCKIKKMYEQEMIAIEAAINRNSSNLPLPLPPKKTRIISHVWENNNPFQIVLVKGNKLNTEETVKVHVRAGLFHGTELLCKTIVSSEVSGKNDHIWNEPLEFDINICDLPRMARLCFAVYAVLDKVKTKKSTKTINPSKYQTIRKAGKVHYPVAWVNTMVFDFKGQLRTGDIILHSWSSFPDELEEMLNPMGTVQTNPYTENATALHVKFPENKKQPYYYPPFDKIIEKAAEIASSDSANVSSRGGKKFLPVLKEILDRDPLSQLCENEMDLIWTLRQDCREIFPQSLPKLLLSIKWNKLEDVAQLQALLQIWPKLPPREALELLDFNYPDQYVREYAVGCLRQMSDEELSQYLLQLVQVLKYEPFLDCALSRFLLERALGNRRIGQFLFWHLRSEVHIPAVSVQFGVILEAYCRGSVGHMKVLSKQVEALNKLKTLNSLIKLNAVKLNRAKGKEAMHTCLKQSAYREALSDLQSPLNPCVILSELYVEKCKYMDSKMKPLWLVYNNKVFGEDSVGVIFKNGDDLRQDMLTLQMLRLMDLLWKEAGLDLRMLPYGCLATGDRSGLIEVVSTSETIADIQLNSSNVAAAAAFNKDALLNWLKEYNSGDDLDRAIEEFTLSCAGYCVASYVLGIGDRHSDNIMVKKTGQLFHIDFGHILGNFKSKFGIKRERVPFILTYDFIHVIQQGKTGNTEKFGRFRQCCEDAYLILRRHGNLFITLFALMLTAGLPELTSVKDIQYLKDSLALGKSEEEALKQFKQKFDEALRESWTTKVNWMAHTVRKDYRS
Sequence of PIK3CB/PIK3R1 (p110 beta/p85 alpha) (P27986 whole entry partner): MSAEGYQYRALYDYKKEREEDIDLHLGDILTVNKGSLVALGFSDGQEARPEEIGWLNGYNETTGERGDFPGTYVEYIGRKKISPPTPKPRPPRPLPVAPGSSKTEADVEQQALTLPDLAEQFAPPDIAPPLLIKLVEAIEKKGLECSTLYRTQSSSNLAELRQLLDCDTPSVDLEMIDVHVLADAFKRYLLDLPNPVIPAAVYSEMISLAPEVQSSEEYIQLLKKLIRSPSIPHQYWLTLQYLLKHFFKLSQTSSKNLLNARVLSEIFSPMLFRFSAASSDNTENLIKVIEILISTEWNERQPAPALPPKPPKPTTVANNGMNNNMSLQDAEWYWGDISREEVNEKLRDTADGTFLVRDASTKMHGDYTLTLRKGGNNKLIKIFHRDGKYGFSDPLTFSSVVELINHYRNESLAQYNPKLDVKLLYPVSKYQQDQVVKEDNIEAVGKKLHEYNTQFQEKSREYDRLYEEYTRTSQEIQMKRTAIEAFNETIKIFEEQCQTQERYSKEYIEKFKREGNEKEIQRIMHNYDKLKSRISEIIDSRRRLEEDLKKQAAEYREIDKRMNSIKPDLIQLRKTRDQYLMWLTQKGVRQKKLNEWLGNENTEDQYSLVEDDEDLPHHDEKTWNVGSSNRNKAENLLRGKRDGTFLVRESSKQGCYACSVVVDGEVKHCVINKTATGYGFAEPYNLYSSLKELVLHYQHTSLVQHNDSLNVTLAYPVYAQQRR
Sequence of RAF1 (cRAF) Y340D Y341D (P04049 whole entry Y340D/Y341D): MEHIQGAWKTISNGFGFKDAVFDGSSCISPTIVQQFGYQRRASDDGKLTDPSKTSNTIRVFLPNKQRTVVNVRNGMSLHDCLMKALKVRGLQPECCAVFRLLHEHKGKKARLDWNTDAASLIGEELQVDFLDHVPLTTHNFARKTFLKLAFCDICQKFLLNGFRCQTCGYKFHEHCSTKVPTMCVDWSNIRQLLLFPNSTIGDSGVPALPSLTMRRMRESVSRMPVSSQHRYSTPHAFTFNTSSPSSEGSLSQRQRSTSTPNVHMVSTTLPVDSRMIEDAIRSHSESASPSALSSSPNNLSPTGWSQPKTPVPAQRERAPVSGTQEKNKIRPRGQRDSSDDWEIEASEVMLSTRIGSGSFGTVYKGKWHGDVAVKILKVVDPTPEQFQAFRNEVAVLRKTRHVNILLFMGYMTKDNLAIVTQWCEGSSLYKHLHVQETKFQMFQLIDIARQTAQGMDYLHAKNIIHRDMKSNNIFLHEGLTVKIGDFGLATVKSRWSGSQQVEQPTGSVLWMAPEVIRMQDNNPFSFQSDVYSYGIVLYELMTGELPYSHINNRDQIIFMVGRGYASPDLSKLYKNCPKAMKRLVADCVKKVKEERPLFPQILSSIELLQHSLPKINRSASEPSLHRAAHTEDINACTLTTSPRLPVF
Sequence of ERBB4 (HER4) (Q15303 26-1308): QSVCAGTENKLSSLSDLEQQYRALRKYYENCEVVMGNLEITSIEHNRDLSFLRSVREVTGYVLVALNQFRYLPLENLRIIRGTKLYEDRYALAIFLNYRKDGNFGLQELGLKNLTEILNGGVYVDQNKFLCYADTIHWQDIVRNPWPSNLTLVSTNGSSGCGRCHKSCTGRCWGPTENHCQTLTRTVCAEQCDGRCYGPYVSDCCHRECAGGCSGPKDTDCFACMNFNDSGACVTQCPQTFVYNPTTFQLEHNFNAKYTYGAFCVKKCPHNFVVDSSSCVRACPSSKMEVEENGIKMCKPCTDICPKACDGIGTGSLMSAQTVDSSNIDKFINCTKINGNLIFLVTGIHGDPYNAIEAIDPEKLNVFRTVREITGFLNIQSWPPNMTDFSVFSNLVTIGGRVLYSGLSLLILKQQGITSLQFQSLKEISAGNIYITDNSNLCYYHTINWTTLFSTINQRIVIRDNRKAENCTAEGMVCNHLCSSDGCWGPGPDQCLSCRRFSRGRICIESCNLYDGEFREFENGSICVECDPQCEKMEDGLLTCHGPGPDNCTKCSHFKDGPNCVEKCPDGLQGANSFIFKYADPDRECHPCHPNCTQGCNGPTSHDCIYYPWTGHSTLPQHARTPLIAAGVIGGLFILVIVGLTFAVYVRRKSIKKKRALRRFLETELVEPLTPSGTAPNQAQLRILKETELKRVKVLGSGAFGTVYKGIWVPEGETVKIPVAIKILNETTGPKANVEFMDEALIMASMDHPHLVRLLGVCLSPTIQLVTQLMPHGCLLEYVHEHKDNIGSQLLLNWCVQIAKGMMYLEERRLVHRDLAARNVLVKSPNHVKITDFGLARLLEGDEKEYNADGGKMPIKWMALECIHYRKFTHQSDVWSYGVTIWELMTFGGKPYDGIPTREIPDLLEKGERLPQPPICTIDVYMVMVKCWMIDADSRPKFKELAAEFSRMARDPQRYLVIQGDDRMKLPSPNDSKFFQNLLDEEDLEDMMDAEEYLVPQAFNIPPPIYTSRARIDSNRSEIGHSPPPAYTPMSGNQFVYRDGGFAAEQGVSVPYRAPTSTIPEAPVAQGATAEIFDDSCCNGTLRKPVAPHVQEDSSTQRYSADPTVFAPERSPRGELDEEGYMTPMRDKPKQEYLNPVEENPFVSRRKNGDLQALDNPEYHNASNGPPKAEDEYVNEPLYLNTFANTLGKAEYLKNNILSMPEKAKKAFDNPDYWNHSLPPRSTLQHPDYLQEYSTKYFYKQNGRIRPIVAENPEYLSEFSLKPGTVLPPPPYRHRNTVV
Sequence of PIK3C3 (hVPS34) (Q8NEB9 whole entry): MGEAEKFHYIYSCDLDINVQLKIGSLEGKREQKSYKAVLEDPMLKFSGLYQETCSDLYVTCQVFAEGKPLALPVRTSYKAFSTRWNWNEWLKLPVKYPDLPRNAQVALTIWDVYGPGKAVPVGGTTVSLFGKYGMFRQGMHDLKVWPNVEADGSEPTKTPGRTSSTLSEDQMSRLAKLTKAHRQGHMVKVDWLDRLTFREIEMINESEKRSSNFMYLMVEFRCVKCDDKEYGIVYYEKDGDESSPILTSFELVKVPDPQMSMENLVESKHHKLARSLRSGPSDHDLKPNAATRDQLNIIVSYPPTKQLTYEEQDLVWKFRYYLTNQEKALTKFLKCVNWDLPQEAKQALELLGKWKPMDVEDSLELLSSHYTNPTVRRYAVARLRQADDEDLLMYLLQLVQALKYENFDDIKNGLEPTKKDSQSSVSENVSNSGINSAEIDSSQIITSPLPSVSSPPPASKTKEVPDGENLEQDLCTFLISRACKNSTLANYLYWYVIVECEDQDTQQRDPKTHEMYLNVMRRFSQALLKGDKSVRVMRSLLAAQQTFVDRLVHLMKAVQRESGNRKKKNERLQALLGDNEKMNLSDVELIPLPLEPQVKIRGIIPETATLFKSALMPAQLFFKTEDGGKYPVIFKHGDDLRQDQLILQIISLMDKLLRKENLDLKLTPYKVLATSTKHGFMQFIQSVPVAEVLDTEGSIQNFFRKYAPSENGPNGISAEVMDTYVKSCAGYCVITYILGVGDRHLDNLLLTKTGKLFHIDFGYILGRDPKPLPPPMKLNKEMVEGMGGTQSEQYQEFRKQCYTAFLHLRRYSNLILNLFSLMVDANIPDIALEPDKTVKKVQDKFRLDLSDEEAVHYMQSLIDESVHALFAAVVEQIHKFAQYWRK

What is called inhibition is the drop in the measured response relative to a control, in per cent. In the case of `COc1cc2nccc(Oc3ccc(NC(=O)C4(C(=O)Nc5ccc(F)cc5)CC4)cc3)c2cc1OC` [Cabozantinib, reference compound], the inhibition at 1 µM came out at 48% on MAP4K3 (GLK); 16% at FGFR2; 0% at PIK3C3 (hVPS34); 59% at AURKC (Aurora C); 66% on RAF1 (cRAF) Y340D Y341D; 17% at TXK. Besides, the inhibition at 1 µM on CSK came to 49%; at JAK1, 0%; on ERBB4 (HER4) it was 35%; in [1], 0%; in test [2], 2%.

As to `COc1cc2nccc(Oc3ccc(NC(=O)C4(C(=O)Nc5ccc(F)cc5)CC4)cc3F)c2cc1Oc1ccc(N)cc1F` [Cbo-23], the inhibition at 1 µM at MAP4K3 (GLK) is 41%; at FGFR2 it was 5%; on PIK3C3 (hVPS34) it was -4%; at AURKC (Aurora C) it was 41%; at RAF1 (cRAF) Y340D Y341D it was 40%; at TXK, 32%. Further, the inhibition at 1 µM at CSK is 66%; at JAK1, 4%; at ERBB4 (HER4), 72%; in test [1] (setting [3]), 4%; in test [2], -4%. The compound also had a percent inhibition with FYN of 51%.

In the case of `COc1cc2nccc(Oc3ccc(NC(=O)C4(NC(=O)c5ccc(F)cc5)CC4)cc3F)c2cc1Oc1ccc(N)cc1F` [Cbo-10], the inhibition at 1 µM was 59% on MAP4K3 (GLK); 29% at FGFR2; -5% on PIK3C3 (hVPS34); 63% at AURKC (Aurora C); 3% at RAF1 (cRAF) Y340D Y341D; 55% at TXK. In addition, the inhibition at 1 µM at CSK came out at 97%; on JAK1, 2%; on ERBB4 (HER4) it was 94%; in test [1] (setting [3]), 10%; in [2], 22%. In addition, in the test with FYN, the percent inhibition was 35%.

`COc1cc2nccc(Oc3ccc(NC(=O)C4(NC(=O)c5ccc(F)cc5)CC4)cc3F)c2cc1OC` [Cbo-02, N-(1-((4-((6,7-diMethoxyquinolin-4-yl)oxy)-3-fluorophenyl)carbamoyl)cyclopropyl)-4-fluorobenzamide]: the inhibition at 1 µM on MAP4K3 (GLK) is 43%; on FGFR2, 22%; at PIK3C3 (hVPS34), 1%; on AURKC (Aurora C), 74%; at RAF1 (cRAF) Y340D Y341D, -8%; on TXK, 14%. For the same compound, the inhibition at 1 µM is 87% on CSK; 1% on JAK1; 31% at ERBB4 (HER4); -6% in test [1] (setting [3]); 3% in test [2]. The same compound displayed a percent inhibition in the test on FYN of 16%.

Take `COc1cc2nccc(Oc3ccc(NC(=O)C4(NC(=O)c5ccc(F)cc5)CC4)cc3F)c2cc1Oc1c(F)cc(N)cc1F` [Cbo-14]: the inhibition at 1 µM at MAP4K3 (GLK) amounted to 58%; on FGFR2 it was 37%; on PIK3C3 (hVPS34) it was 6%; at AURKC (Aurora C) it was 59%; at RAF1 (cRAF) Y340D Y341D, 3%; at TXK, 52%. In addition, the inhibition at 1 µM came to 97% at CSK; 1% at JAK1; 93% on ERBB4 (HER4); 3% in [1] (setting [3]); 0% in test [2]. In addition, the percent inhibition with FYN was found to be 48%.
